Entries after “also recorded” stand apart in the source; their conditions may differ.
Assays:
[1] = system: PH-HFpEF patients; experiment: HELP Study double-blind phase: weekly 24-hour infusions for 5 weeks vs placebo, assessment at Week 6; assay type: in vivo, human; details: for mean pulmonary arterial pressure (mPAP) / right atrial pressure (RAP) / six-minute walk test distance: Week 6, compared with placebo; for pulmonary capillary wedge pressure (PCWP): baseline vs Week 6, compared with placebo
Experimental: Study drug is administered via i.v. infusion over 24 hours weekly through Week 5 via a PICC line. Infusions (Week 2-5) are done in the subject's home by a study nurse. Patients return to the study site for a visit between the Week 3 and Week 4 infusions for assessment of subject safety/response and need for dose adjustment. Each subject is to return on Week 6 for assessment of efficacy and safety on study drug. A right heart catheter will be inserted to obtain hemodynamic measurements at rest and exercise at baseline, the following day after the lead-in 24-hour infusion, and during Week 6.
During the Lead-in phase of the study, a sufficient number of subjects are enrolled and receive levosimendan to identify a total of 36 ‘responders.’ The levosimendan ‘responders’ are randomized 1:1, levosimendan or placebo, for the double-blind phase of the study.
During the Double-blind phase, study drug concentrated solution (2.5 mg/mL), levosimendan or placebo, is mixed with diluent and administered via a PICC line as weekly infusions at 0.075 μg/kg/min for 24 hours. Patients undergo a dose escalation at Week 4 and 5 (0.10 μg/kg/min for 24 hours) unless there has been a meaningful change in blood pressure or heart rate. Infusion rates may be reduced to 0.05 μg/kg/min if the higher dose is not well-tolerated at any time during the initial 5 weeks.
Visits at Weeks 2, 3, 4, and 5 are performed within +/−48 hours of the scheduled visit. Visits for Weeks 2-5 are calculated based on the date of the Lead-in infusion. These visits are performed at the subject's home with the aid of the home health care nurse. The home health care nurse remains with the patient for the first 2-3 hours of the infusion to ensure patient safety. The home health care nurse visits the patient again at 24 hours to stop the infusion and assess the patient's status. During this visit, the following procedures are performed: Record any changes in procedures, prescription and non-prescription drugs, vitamins, and dietary or herbal supplements; measure vital signs prior to starting the infusion, after the first 2 hours (+/−30 min), and after 24 hours (+/−30 min); assess adverse events and study drug administration. At Week 5, all patients are given a new cardiac monitoring sensor to wear on their chest to measure cardiac rhythm, as was done during Screening. The patch is applied prior to (<1 hour) the 24-hour infusion, remain monitoring the patient for a minimum of 72 hours and returned to the investigational site at the Week 6 visit.
Visits at Week 6 should be performed 3-6 days following completion of the Week 5 infusion. During this visit, the following procedures are performed: record any changes in procedures, prescription and non-prescription drugs, vitamins, and dietary or herbal supplements; measure vital signs (BP, PR, respiratory rate, temperature); hematology and clinical chemistry blood samples; conduct 12-lead ECG; echocardiogram within +/−72 hours of the Week 6 visit; right heart catheterization at rest and with exercise; QOL assessment; Child-Pugh Class, NYHA Functional Class, assess adverse events, 6 minute walk test; and pharmacokinetic sampling (sample to be taken prior to enrollment in Open-Label phase.
The 6-minute walk test (6MWT) is performed at approximately the same time of day at each study visit after the Baseline Visit and ideally, one of the first assessments to be performed. The ECHO and subject questionnaire are performed after the 6MWT has been completed. The 6MWT is performed using the methods described in the American Thoracic Society (ATS) Statement: Guidelines for the Six-Minute Walk Test. The test is performed at approximately the same time of day when assessed and by the same evaluator whenever possible.

[2] = parent drug, intravenous infusion; cited from earlier work
[3] = system: patients afflicted with pulmonary hypertension; details: chronic dosing over an 8-week period; cited from earlier work
[4] = system: PH-HFpEF patients; experiment: Open-label extension (rollover) study: six-minute walk distance and Likert quality of life; assay type: in vivo, human
Experimental: This is an open-label rollover study to allow patients to continue levosimendan treatment if the patient has tolerated treatment in the HELP clinical study seen in Example 1.
Study drug concentrated solution (2.5 mg/mL), levosimendan, is mixed with diluent and administered as weekly infusions at 0.075 μg/kg/min for 24 hrs. Patients may have a dose escalation at Weeks 3 at a rate of 0.10 μg/kg/min for 24 hours, unless there has been a meaningful change in blood pressure or heart rate or other prohibitive rationale.
Visits at Weeks 3, 6, 12, 24, 48 and Follow-Up Visit (at termination) are performed within 72 hours of the scheduled weekly visit. These visits are performed at the investigator's office. The Follow-Up Visit (at termination) is calculated as the earlier of two years from the subject's date of entry into this extension study or as soon as possible after study discontinuation, but within 1 week. During this visit, the following procedures are performed: Vital signs; body weight (Week 3 only); 6MWT; Quality of Life assessment; NYHA Functional Class; Physician Assessment; assess adverse events, and concomitant medications and/or procedures.

[5] = chronic (weekly for 5 weeks) administration, week 6
[6] = weekly 24-hour infusions, listed as Levosimendan
[7] = weekly 24-hour infusions, compared with placebo

## C[C@@H]1CC(=O)NN=C1c1ccc(NN=C(C#N)C#N)cc1 [levosimendan, Levosimendan]
[1]; [5]
  Cardiac Index (CI): unchanged at week 6
  pulmonary vascular resistance (PVR): unchanged at week 6
[1]; chronic (weekly for 5 weeks) administration, week 6, listed as Levosimendan
  pulmonary vascular resistance (PVR): did not decrease
[1]; weekly 24-hour dosing
  safety and tolerability: safe and well tolerated
[1]; weekly 24-hour infusions
  mean pulmonary arterial pressure (mPAP): significantly greater reduction; also recorded: decrease
  right atrial pressure (RAP): decrease; also recorded: significantly greater reduction
  six-minute walk test distance: significantly increased; also recorded: increase; also recorded: statistically significant improvement
  pulmonary capillary wedge pressure (PCWP): significant vs placebo; also recorded: greater decrease
[1]; [6]
  mean pulmonary arterial pressure (mPAP): reduces
  right atrial pressure (RAP): improves
  six-minute walk test distance: improves
  pulmonary capillary wedge pressure (PCWP): improves
[1]; [7]
  cardiac output: significantly greater increase
  proportion of subjects with an improved sense of well-being: significantly higher proportion
[2]
  half-life: approximately 1 hour
[3]
  efficacy: failed to show efficacy
[4]; n=8
  increase of six-minute walk distance, average: 30 meters
  patients with increased overall sense of well-being (five-point Likert Scale): 7 out of 8
[4]; n=8, baseline 292
  six-minute walk distance after levosimendan, average: 322 meters
[4]; patients who improved
  improvement on the five-point Likert scale: 1-2 points

Source: patent publication US11701355B2, “Levosimendan for treating pulmonary hypertension with heart failure with preserved ejection fraction (PH-HFpEF)” (Tenax Therapeutics, Inc., priority 2019, dated 2023)
